Experimental data published in ChEMBL document CHEMBL5252622, “Discovery of a brain-sparing GIRK1/4 inhibitor for pharmacological cardioversion of atrial fibrillation” (Bioorg Med Chem Lett, 2023).
≈ marks a conversion by molar mass, not a printed value. Calls of active or inactive are those of the source. The calls are words filed in the database; no cut-off is given here.

Columns and labels:
[1] = Aqueous solubility of the compound at pH 6.8; format: physicochemical
Kir3.1/Kir3.4 = target: T1, Kir3.1/Kir3.4 (Homo sapiens, UniProt P48544+P48549); assay: Inhibition of recombinant human GIRK1/4 channel; format: protein-complex assay
T1 sequence (P48549 whole entry): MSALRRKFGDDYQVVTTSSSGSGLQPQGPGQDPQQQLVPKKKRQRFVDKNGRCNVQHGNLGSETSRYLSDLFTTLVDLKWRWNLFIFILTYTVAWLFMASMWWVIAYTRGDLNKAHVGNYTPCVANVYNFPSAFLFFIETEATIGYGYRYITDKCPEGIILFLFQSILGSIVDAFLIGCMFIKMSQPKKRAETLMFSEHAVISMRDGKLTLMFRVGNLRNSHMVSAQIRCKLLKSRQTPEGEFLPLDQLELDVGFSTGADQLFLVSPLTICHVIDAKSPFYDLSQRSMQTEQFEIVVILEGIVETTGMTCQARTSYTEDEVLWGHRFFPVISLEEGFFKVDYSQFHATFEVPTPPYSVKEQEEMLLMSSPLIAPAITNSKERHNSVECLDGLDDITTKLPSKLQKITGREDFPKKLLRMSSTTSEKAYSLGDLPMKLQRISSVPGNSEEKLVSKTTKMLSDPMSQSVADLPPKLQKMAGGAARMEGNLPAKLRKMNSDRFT
T1 sequence (P48544 whole entry): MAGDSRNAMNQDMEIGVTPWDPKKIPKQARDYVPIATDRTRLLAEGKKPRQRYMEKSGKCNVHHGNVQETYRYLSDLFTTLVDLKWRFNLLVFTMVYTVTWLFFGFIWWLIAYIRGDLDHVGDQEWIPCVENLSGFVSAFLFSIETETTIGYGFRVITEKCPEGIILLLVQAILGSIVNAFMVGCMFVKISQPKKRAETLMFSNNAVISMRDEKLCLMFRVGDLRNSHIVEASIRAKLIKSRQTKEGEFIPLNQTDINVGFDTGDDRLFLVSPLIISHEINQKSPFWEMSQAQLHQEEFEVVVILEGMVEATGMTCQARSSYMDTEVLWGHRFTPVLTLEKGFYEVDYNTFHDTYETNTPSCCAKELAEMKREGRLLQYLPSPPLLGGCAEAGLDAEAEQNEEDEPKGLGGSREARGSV

[2] = Apparent permeability across apical to basolateral side in MDCK cells; format: ADME, cell-based, Canis lupus familiaris; details: dog
MDCK = assay: Substrate activity at p-glycoprotein in MDCK cells overexpressing MDR1 assessed as efflux ratio of permeability from basolateral to apical side over apical to basolateral side; format: cell-based; details: Canis lupus familiaris
[3] = Brain to plasma ratio in rat; format: ADME; details: read-out: BPR
[4] = target: T2, Potassium voltage-gated channel subfamily KQT member 1 (Homo sapiens, UniProt P51787); assay: Inhibition of recombinant human KCNQ1; format: toxicity
T2 sequence (P51787 whole entry): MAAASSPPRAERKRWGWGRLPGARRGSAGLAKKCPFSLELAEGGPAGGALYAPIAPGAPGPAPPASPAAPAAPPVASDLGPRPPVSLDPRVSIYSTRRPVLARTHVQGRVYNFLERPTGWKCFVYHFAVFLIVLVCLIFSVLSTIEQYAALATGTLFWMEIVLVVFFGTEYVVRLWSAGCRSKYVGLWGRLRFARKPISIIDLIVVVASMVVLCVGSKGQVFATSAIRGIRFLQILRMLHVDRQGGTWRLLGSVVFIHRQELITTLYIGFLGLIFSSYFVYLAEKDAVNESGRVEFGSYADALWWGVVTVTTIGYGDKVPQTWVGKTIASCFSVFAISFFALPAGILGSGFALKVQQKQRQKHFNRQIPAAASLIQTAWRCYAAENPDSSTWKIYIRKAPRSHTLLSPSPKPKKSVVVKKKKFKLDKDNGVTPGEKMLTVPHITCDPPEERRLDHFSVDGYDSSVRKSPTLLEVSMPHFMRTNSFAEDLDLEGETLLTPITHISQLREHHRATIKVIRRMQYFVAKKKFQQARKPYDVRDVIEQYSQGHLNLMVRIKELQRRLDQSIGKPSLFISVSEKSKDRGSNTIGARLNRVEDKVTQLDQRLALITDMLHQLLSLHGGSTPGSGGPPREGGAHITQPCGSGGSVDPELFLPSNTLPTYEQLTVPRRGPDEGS

[5] = target: Voltage-dependent L-type calcium channel subunit alpha-1C (Homo sapiens, UniProt Q13936); assay: Inhibition of recombinant human Cav1.2; format: toxicity
[6] = target: Kir3.1/Kir3.2 (Homo sapiens) (UniProt P48549+P48051); assay: Inhibition of recombinant human GIRK1/2 channel; format: protein-complex assay
[7] = Intrinsic clearance in rat liver microsomes; format: ADME, Microsome; details: read-out: CLH
[8] = target: Sodium channel protein type 5 subunit alpha (Homo sapiens, UniProt Q14524); assay: Inhibition of recombinant human Nav1.5; format: toxicity
[9] = target: Voltage-gated inwardly rectifying potassium channel KCNH2 (Homo sapiens, UniProt Q12809); assay: Inhibition of recombinant hERG in the presence of dofetilide by competitive binding assay; format: toxicity
[10] = Intrinsic clearance in human liver microsomes; format: ADME, Microsome; details: read-out: CLH

Chain of Sodium channel protein type 5 subunit alpha (Q14524 whole entry): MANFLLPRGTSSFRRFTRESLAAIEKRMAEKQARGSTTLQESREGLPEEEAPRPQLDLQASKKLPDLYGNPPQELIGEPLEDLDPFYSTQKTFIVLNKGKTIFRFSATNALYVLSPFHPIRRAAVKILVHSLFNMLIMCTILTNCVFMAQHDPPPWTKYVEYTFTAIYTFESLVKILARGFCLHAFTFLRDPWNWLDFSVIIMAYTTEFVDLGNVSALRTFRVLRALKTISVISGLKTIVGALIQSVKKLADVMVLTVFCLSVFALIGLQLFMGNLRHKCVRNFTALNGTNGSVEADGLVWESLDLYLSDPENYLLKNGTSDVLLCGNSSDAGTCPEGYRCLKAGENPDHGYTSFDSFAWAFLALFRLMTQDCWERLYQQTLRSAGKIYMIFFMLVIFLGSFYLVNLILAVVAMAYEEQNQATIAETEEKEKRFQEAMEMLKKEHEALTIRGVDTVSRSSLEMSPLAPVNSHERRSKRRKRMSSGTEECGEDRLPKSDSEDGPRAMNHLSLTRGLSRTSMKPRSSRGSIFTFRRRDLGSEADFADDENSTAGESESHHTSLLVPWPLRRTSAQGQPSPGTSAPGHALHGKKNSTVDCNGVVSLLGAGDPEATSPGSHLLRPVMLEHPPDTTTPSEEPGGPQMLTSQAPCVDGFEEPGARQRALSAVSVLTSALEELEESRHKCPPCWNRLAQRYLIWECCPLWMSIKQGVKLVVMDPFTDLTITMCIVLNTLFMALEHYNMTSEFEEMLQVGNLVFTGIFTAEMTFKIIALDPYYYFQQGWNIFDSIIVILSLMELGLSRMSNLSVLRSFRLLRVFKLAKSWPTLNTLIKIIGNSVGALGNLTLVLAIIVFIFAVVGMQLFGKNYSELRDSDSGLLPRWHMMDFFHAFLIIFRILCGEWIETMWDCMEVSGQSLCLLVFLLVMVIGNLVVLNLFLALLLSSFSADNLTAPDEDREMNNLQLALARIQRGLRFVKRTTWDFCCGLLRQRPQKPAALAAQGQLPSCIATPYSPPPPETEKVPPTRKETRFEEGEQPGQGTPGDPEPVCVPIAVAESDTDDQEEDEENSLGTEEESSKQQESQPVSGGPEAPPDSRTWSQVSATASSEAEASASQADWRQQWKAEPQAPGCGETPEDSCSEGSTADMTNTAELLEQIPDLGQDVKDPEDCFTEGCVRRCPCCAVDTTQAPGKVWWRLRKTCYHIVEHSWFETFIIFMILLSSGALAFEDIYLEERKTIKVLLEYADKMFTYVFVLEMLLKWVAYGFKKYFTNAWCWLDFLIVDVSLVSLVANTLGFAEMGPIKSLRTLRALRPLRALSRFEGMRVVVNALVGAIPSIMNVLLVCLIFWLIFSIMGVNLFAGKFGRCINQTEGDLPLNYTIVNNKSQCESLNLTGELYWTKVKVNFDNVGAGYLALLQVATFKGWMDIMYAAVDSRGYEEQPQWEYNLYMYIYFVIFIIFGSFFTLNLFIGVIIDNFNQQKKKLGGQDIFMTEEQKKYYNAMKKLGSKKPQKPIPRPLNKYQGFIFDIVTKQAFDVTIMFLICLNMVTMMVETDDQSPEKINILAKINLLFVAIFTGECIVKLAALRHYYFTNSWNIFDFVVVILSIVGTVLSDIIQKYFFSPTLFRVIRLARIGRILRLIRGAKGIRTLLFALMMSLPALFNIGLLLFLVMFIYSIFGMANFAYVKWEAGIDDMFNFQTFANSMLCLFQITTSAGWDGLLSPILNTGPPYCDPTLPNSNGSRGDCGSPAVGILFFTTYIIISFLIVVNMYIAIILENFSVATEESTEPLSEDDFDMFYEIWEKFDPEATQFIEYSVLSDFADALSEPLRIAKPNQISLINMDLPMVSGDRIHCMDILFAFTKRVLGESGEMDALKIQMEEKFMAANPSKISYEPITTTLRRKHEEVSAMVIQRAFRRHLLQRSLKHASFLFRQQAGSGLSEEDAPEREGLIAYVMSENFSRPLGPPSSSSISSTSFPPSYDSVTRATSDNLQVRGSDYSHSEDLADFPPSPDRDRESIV
Chain of Voltage-dependent L-type calcium channel subunit alpha-1C (Q13936 whole entry): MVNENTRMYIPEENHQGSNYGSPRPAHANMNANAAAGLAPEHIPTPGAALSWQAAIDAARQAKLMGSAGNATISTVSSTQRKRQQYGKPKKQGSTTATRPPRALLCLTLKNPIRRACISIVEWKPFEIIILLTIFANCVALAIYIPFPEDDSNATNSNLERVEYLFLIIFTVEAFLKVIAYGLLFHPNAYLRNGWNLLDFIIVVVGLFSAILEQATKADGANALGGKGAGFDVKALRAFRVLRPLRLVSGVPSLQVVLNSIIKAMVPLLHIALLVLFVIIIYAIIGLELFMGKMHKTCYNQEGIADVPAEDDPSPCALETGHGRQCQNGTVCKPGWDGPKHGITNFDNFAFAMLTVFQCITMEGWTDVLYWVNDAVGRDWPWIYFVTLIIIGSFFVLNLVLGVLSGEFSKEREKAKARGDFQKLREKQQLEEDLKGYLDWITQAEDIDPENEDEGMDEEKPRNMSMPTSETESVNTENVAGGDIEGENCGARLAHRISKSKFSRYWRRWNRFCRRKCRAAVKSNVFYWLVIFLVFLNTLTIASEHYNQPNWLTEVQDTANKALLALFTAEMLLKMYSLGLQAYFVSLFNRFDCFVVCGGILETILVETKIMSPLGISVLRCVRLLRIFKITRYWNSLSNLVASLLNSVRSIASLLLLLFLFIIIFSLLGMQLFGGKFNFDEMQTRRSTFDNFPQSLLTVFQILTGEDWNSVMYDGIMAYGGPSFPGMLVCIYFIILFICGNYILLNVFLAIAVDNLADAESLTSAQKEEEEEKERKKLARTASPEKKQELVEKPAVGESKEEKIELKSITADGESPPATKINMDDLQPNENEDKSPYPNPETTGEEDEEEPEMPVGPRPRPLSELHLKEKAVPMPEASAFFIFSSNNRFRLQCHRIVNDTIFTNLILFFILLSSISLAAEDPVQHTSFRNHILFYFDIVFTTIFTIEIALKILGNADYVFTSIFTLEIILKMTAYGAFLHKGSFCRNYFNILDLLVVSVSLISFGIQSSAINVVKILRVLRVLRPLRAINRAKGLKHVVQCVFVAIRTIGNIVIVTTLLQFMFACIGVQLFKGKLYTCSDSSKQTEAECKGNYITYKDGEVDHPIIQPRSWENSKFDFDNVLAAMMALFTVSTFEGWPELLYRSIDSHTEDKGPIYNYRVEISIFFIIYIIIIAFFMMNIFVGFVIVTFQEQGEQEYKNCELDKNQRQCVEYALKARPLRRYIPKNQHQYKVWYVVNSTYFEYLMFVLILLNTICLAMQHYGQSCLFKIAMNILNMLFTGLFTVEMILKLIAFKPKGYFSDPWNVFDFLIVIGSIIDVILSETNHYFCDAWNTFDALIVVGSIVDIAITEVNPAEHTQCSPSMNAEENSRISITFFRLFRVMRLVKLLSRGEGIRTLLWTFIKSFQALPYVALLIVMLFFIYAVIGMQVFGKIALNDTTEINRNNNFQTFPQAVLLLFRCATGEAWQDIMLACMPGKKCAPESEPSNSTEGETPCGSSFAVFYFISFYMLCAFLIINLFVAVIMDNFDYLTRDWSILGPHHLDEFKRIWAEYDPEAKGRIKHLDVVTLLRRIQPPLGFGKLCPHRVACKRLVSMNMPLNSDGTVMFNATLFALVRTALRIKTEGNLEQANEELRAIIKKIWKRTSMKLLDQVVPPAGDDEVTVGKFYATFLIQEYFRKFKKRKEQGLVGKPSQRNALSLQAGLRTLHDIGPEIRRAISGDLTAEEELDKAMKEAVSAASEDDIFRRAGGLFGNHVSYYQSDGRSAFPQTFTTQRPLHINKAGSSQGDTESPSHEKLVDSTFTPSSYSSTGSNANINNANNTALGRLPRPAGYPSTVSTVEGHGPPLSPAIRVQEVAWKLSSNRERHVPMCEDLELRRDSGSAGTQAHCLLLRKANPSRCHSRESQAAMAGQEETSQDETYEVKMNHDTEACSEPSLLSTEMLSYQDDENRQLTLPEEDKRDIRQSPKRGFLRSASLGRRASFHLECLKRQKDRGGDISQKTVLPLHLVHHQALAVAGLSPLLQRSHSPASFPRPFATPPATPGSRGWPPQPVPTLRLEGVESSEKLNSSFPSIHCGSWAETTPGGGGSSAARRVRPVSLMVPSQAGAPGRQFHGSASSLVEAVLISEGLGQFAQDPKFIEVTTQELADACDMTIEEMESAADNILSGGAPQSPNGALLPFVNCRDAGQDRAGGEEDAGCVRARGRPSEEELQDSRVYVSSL

SMILES	solubility [1] [µM]	IC50 (Kir3.1/Kir3.4) [nM]	Papp A→B [2] [×10⁻⁶ cm/s]	Ratio (MDCK)	Kp [3]	IC50 [4] [nM]	IC50 [5] [nM]	inhibition [6]	microsomal CLint [7] [µL/min/mg]	IC50 [8] [nM]	IC50 [9] [nM]	microsomal CLint [10] [µL/min/mg]
COc1ncc(C)c2c1c(=O)cc(CO)n2-c1c(Cl)cccc1Cl	280 (≈ 102 µg/mL)	290	8.5									
Cc1cc(=O)c2c(OCCO)ncc(Cl)c2n1-c1c(Cl)cccc1Cl	430 (≈ 172 µg/mL)		32.6	0.7								
Cc1cc(=O)c2c(OCCOCCOCCOCCO)ncc(Cl)c2n1-c1c(Cl)cccc1Cl	600 (≈ 319 µg/mL)		23	5.7								
Cc1cc(=O)c2c(OCC(O)COCC(O)CO)ncc(Cl)c2n1-c1c(Cl)cccc1Cl (stereo not drawn)	720 (≈ 363 µg/mL)		7.5	15								
Cc1cc(=O)c2c(F)cncc2n1-c1c(Cl)cc(OCC(O)CO)cc1Cl (stereo not drawn)	660 (≈ 273 µg/mL)	11	31	0.9	1							
CSc1c(C#N)c(=O)c2ccc(F)cc2n1-c1c(Cl)cccc1Cl	13 (≈ 4.93 µg/mL)	50				33000	24200	inactive	236	> 50000	> 30000	77
Cc1cc(=O)c2c(OCC(O)CC(O)CO)ncc(Cl)c2n1-c1c(Cl)cccc1Cl (stereo not drawn)	230 (≈ 109 µg/mL)	87	16.6	4.5								
O=c1cc(CO)n(-c2c(Cl)cccc2Cl)c2c(Cl)cnc(OC(CO)CO)c12	300 (≈ 134 µg/mL)	250	6.9	18.3								
COc1ncc(Cl)c2c1c(=O)cc(CO)n2-c1c(Cl)cccc1Cl	89 (≈ 34.3 µg/mL)	27	22.6	2.7								
